According to patent EP3653215A1, “THERANOSTIC INHIBITORS AND ACTIVITY-BASED PROBES FOR THE KLK7 PROTEASE” (University of Patras, priority 2018, dated 2020):
“Also recorded” adds a separate entry of the source. Where two headings read alike, the source gives them in different places.

Columns and labels:
KLK6 [1] = target: T1, KLK6 (Homo sapiens, UniProt Q92876); assay: Western-like blotting with activity-based probe; format: binding; conditions: enzyme reacted with probe 2 or 16 hours
Description: (§1) For Western-like blotting, the enzymes were reacted with Biotin-FFP for 2 or 16 hours, resolved on SDS-PAGE, then, the proteins were transferred on PVDF membranes. Membranes were blocked with 3% BSA in PBS for 40 min at room temperature, washed twice with PBS and incubated for 1 hour at room temperature with streptavidin-HRP polymer (1:2,000) and subsequently washed four times with PBS containing 0.05% Tween-20. Specific bands were identified with ECL.

trypsin [2] = assay: Western-like blotting with activity-based probe; format: binding; conditions: enzyme reacted with probe 2 or 16 hours
Description: as §1

[3] = system: skin of wildtype (wt) or Klk5^-/- mice; assay: erythema/eschar and oedema scoring after application on the skin; format: in vivo; design: key to Erythema and Eschar Score after (hrs) 4 / Erythema and Eschar Score after (hrs) 24 / Erythema and Eschar Score after (hrs) 48 / Erythema and Eschar Score after (hrs) 72: 0: No erythema; 1: Very slight erythema (barely perceptible); 2: Well defined erythema; 3: Moderate to severe erythema; 4: Severe erythema (beef redness); key to Oedema Score after (hrs) 4 / Oedema Score after (hrs) 24 / Oedema Score after (hrs) 48 / Oedema Score after (hrs) 72: 0: No oedema; 1: Very slight oedema (barely perceptible); 2: Slight oedema (edges of area well defined by definite raising); 3: Moderate oedema (raised approximately 1mm); 4: Severe erythema (raised more than 1mm and extending beyond area of exposure); conditions: for erythema or oedema in vivo: 1 mM on the skin of wildtype (wt) or Klk5^-/- mice; for erythema or oedema in vivo / toxicity: result in words; for Erythema and Eschar Score after (hrs) 4 / Oedema Score after (hrs) 4 / Erythema and Eschar Score after (hrs) 24 / Oedema Score after (hrs) 24 / Erythema and Eschar Score after (hrs) 48 / Oedema Score after (hrs) 48 / Erythema and Eschar Score after (hrs) 72 / Oedema Score after (hrs) 72: 1 mM on the skin; for Erythema and Eschar Score after (hrs) 4 / Oedema Score after (hrs) 4: 4 hrs; for Erythema and Eschar Score after (hrs) 24 / Oedema Score after (hrs) 24: 24 hrs; for Erythema and Eschar Score after (hrs) 48 / Oedema Score after (hrs) 48: 48 hrs; for Erythema and Eschar Score after (hrs) 72 / Oedema Score after (hrs) 72: 72 hrs; for toxicity: wild type and Klk5^-/- mice
Description: Scoring was based on the following criteria (Table 2 and 3): Table 2 - Scoring criteria for erythema and eschar formation

KLK7 [4] = target: T2, KLK7 (Homo sapiens, UniProt P49862); format: binding
KLK7 [5] = target: T2, KLK7; assay: gel zymography (casein); format: biochemical
KLK6 [6] = target: T1, KLK6; assay: enzyme kinetic study, cleavage of fluorescent substrate Z-Phe-Arg-AMC; format: biochemical
Description: (§2) The enzyme kinetic study testing the ability of Boc-FFP to inhibit trypsin or KLK6 was performed with cleavage of fluorescent substrate Z-Phe-Arg-AMC. The enzymes were used at 12 nM and the substrate at 50 µM. Boc-FFP was used at 1.2 µM (100:1 molar ration inhibitor: enzyme). Aprotinin was used a positive control at 500 nM final concentration. Fluorescence was measured (λexc=380 nm, λem=440 nm) for 3 min and the results were expressed as ΔF/Δt.

trypsin [7] = assay: as above; format: biochemical
Description: as §2

Spink5^-/^-Klk5^-/- mice = assay: application on the skin of Spink5^-/^-Klk5^-/- mice (desquamation, inflammatory cytokines); format: in vivo
KLK7 [8] = target: T2, KLK7; assay: KLK7 inhibition study for IC50 determination, BODIPY-FL casein substrate; format: biochemical; conditions: KLK7 6 nM, inhibitor 50 nM to 10 µM, 16 hours at room temperature, BODIPY-FL casein 30 µg/ml
Description: For IC50 determination, KLK7 inhibition study was carried out in assay buffer (100 mM Tris-HCI, pH 7.8, 100 mM NaCl, 10 mM CaCl2, 0.005% Triton X-100). KLK7 (6 nM) was incubated with the inhibitor (50 nM to 10 µM) for 16 hours at room temperature in the assay buffer. Then, the BODIPY-FL casein substrate (Molecular Probes) was added at 30 µg/ml and fluorescence was measured (λexc=485 nm, λem=530 nm). After 3 hours the fluorescence was measured again. Data were inserted into the online available program Very Simple IC50 Tool (http://www.ic50.tk/) for fitting and calculation of the IC50.

KLK13 = target: T3, KLK13 (Homo sapiens, UniProt Q9UKR3); assay: gel zymography, specificity; format: biochemical; conditions: 2 hours at room temperature
T3 sequence (Q9UKR3 17-277): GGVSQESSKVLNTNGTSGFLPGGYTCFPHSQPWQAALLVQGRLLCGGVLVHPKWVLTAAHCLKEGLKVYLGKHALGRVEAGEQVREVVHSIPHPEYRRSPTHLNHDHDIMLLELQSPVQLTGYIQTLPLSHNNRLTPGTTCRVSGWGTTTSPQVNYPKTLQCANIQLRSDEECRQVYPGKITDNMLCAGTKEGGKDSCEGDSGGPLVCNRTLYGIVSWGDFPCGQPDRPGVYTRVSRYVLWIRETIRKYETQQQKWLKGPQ
Description: (§3) For gel zymography, the compounds were reacted with the enzymes at room temperature for 2 hours, then mixed with zymogram loading buffer without mercaptoethanol, incubated at 37°C for 15 min and resolved on 12% SDS-PAGE containing 0.1% casein or gelatin substrates. Gels were washed twice with 50 mM Tris-HCI pH 7.5, 5 mM CaCl2, 2.5% Triton X-100 for 15 min, then 15 min with 50 mM Tris-HCI, pH 7.5, 5 mM CaCl2, 0.1% Triton X-100, and finally incubated in the latter buffer for 24 hours and stained with Coomassie G-250. Proteolytic bands appear white against a blue background.

KLK6 [9] = target: T1, KLK6; assay: gel zymography, specificity; format: biochemical; conditions: 2 hours at room temperature
Description: as §3

trypsin [10] = assay: gel zymography, specificity; format: biochemical; conditions: 2 hours at room temperature
Description: as §3

elastase (ELA) = assay: gel zymography, specificity; format: biochemical; conditions: 2 hours at room temperature
Description: as §3

[11] = enzyme kinetic study, result in words
[12] = gel zymography, casein, compound reacted with enzyme 2 hours at room temperature

T2 sequence (P49862 30-253): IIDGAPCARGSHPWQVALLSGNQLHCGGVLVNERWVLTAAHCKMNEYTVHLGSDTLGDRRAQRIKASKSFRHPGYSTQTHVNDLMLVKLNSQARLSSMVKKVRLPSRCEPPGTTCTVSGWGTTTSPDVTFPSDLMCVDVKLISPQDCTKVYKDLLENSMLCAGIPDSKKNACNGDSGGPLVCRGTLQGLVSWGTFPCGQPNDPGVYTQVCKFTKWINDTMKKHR

| Structure (SMILES) | erythema or oedema in vivo [3] | Erythema and Eschar Score after (hrs) 4 ([3]; Klk5^-/- mice) | Oedema Score after (hrs) 4 ([3]; Klk5^-/- mice) | Erythema and Eschar Score after (hrs) 24 ([3]; Klk5^-/- mice) | Oedema Score after (hrs) 24 ([3]; Klk5^-/- mice) | Erythema and Eschar Score after (hrs) 48 ([3]; Klk5^-/- mice) | Oedema Score after (hrs) 48 ([3]; Klk5^-/- mice) | Erythema and Eschar Score after (hrs) 72 ([3]; Klk5^-/- mice) | Oedema Score after (hrs) 72 ([3]; Klk5^-/- mice) | toxicity [3] | Erythema and Eschar Score after (hrs) 4 ([3]; wt mice) | Oedema Score after (hrs) 4 ([3]; wt mice) | Erythema and Eschar Score after (hrs) 24 ([3]; wt mice) | Oedema Score after (hrs) 24 ([3]; wt mice) | Erythema and Eschar Score after (hrs) 48 ([3]; wt mice) | Oedema Score after (hrs) 48 ([3]; wt mice) | Erythema and Eschar Score after (hrs) 72 ([3]; wt mice) | Oedema Score after (hrs) 72 ([3]; wt mice) | inhibition of KLK7 activity (KLK7 [5]; [12]) | also measured |
| --- | --- | --- | --- | --- | --- | --- | --- | --- | --- | --- | --- | --- | --- | --- | --- | --- | --- | --- | --- | --- |
| O=C(CCCCCNC(=O)CCCC[C@H]1SCC2NC(=O)NC21)NCCCCCC(=O)NC(Cc1ccccc1)C(=O)NC(Cc1ccccc1)P(=O)(Oc1ccccc1)Oc1ccccc1 (stereo partly drawn) [Biotin-FFP, diphenyl 1-(2-(6-(6-(5-((4R)-2-oxo-hexahydro-1H-thieno[3,4-d]imidazole-4-yl)pentanamido)hexanamido)hexanamido)-3-phenylpropanamido)-2-phenylethylphosphonate] | did not exhibit either erythema or oedema | 0 | 0 | 0 | 0 | 0 | 0 | 0 | 0 | lack toxicity | 0 | 0 | 0 | 0 | 0 | 0 | 0 | 0 | – | detection of KLK6 (KLK6 [1]): does not react with KLK6 and trypsin; detection of trypsin (trypsin [2]): not the trypsin or the KLK6; also recorded: does not react with KLK6 and trypsin; detection of active KLK7 (KLK7 [4]): only detected the active KLK7; labeling of KLK7, signal (KLK7 [4]): higher signal compared to Biotin-FbFP; also recorded: significant signal enhancement |
| CC(C)(C)OC(=O)NC(Cc1ccccc1)C(=O)NC(Cc1ccccc1)P(=O)(Oc1ccccc1)Oc1ccccc1 (stereo not drawn) [Boc-FFP, tert-butvl 1-(1-(diphenoxvphosphorvl)-2-phenylethylamino)-1-oxo-3-phenylpropan-2-ylcarbamate] | did not exhibit either erythema or oedema | 0 | 0 | 0 | 0 | 0 | 0 | 0 | 0 | lack toxicity | 0 | 0 | 0 | 0 | 0 | 0 | 0 | 0 | – | inhibition of KLK7 activity (KLK7 [5]): only Boc-FFP could effectively inhibit KLK7 activity; also recorded: can also inhibit the KLK7 activity; also recorded: can only inhibit the activity of KLK7; also recorded: Only KLK7 was inhibited; ΔF/Δt (KLK6 [6]; KLK6 12 nM, Z-Phe-Arg-AMC 50 µM, change in fluorescence over 3 min, Boc-FFP 1.2 µM pre-incubated 2 hours, Aprotinin 500 nM, KLK6 alone 35.54): 37.96; inhibition of the activity of KLK6 (KLK6 [6]; [11]): did not inhibit; inhibition of the activity of trypsin (trypsin [7]; [11]): did not inhibit; ΔF/Δt (trypsin [7]; trypsin 12 nM, Z-Phe-Arg-AMC 50 µM, change in fluorescence over 3 min, Boc-FFP 1.2 µM pre-incubated 2 hours, Aprotinin 500 nM, trypsin alone 33.49): 33.26; reduction of macroscopic desquamation (Spink5^-/^-Klk5^-/- mice; application on the skin of Spink5^-/^-Klk5^-/- mice, versus solvent control side): approximately 50%; expression of inflammatory cytokines (Spink5^-/^-Klk5^-/- mice; skin of Spink5^-/^-Klk5^-/- mice, RT-qPCR, versus solvent treatment): suppressed the expression of inflammatory cytokines; IC50 (KLK7 [8]): 1910 nM; inhibition of KLK13 (KLK13): Only KLK7 was inhibited; inhibition of KLK6 (KLK6 [9]): Only KLK7 was inhibited; inhibition of trypsin (trypsin [10]): Only KLK7 was inhibited; inhibition of elastase (ELA) (elastase (ELA)): Only KLK7 was inhibited |
| CC(C)(C)OC(=O)NC(Cc1ccccc1)C(=O)NC(c1ccccc1)P(=O)(Oc1ccccc1)Oc1ccccc1 (stereo not drawn) [Boc-FbFP] | – | – | – | – | – | – | – | – | – | – | – | – | – | – | – | – | – | – | only Boc-FFP can inhibit the activity of KLK7 | – |
| CC(C)(C)OC(=O)NC(Cc1ccccc1)C(=O)NC(CCc1ccccc1)P(=O)(Oc1ccccc1)Oc1ccccc1 (stereo not drawn) [Boc-FcFP] | – | – | – | – | – | – | – | – | – | – | – | – | – | – | – | – | – | – | only Boc-FFP can inhibit the activity of KLK7 | – |
